In patent publication US12655101B2, “Small molecules with antibacterial activity” (NEW MEXICO TECH UNIVERSITY RESEARCH PARK CORPORATION, priority 2021, dated 2026):
Converted amounts (≈) assume the structure as drawn. Where two headings read alike, the source gives them in different places.

Assays:
MRSA ATCC BAA-44 = experiment: MIC on MRSA ATCC BAA-44; format: cell-based, S. aureus; settings: for MIC: Staphylococcus aureus
Procedure: MRSA BAA-44: MRSA ATCC BAA-44 was grown from a glycerol stock by placing a small volume of cells onto a Mueller-Hinton agar plate (MHA). The MHA plate was incubated overnight at 37° C. A single colony was used to inoculate Mueller-Hinton broth (MHB) to obtain a bacterial broth suspension. The MHB broth suspension was grown at 37° C. on a rotary shaking incubator (100 rpm) for 12 hours. The bacterial cell concentration was adjusted to ˜5×10^5 colony forming units per milliliter (CFU/mL) in MHB−/+10, 20, or 40% FBS using optical density (OD) at 595 nm. 500 μL aliquots of the adjusted bacterial cell suspension were placed into borosilicate glass tubes. The cell suspensions were treated with 100 μM compound of interest and serially diluted two-fold. The culture tubes were incubated for 18 hours at 37° C. Efficacy was either assessed visually or by adding 10% v/v MTT (5 mg/mL stock) after the 18 hour incubation period, where the cell suspensions were subsequently incubated for 10 minutes to allow the MTT reagent to carry out the colorimetric reaction.

[1] = tested on: A. baumannii ATCC BAA-1797; experiment: MIC on A. baumannii ATCC BAA-1797; format: cell-based; settings: Acinetobacter baumannii
Method in brief: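 Cells adjusted to ~5×10^5 CFU/mL in MHB or MHB with 10%, 20% or 40% FBS, treated with two-fold serial compound dilutions in glass tubes and incubated 18 hours at 37° C. Growth read visually or by MTT (10% v/v, 10 min) with OD at 595 nm.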

A. baumannii ATCC 15151 [2] = experiment: ATP decrease (luciferase); format: cell-based; settings: 1xMIC and 2xMIC; 25 minutes
H. pylori Hp A-4 = experiment: Direct comparison of Compound 26 in 5% FBS on H. pylori and A. baumannii; format: cell-based
Procedure: A direct comparison of Compound 26 in 5% […] on H. pylori Hp A-4 and A. baumannii BAA-1797 was performed. The conditions were standard liquid culture conditions for each organism in 5% FBS. A lawn of H. pylori Hp A-4 on a blood agar plate was prepared. 1 μL of Compound 26 at various concentrations and 1 μL of 100% sterile DMSO were spotted on the blood agar plate. The plate was incubated for 4 days at 37° C. in 5% CO2.

E. coli pNMT41 = experiment: 6-chloro-4-methyl-umbelliferyl-β-D-glucuronide assay for beta-glucuronidase (inner membrane disruption); format: cell-based; settings: 10 μg/mL PME
Procedure: E. coli pNMT 41 was grown from a glycerol stock by placing a small volume of cells onto a MHA plate. The MHA plate was incubated overnight at 37° C. A single colony was subsequently used to inoculate MHB+100 μg/mL ampicillin to obtain a bacterial broth suspension. The MHB broth suspension was grown at 37° C. on a rotary shaking incubator (100 rpm) for 12 hours. The bacterial cell concentration was adjusted to ˜1×10^7 CFU/mL in MHB using OD at 595 nm. The cells were washed 3× by spinning by centrifuge and washing with 500 μL medium 200. The cells were resuspended in 7 mL medium 200. The cells were treated with 10 μM melittin, 6, 12, 24, and 100 μM Compound 25, and 10 μg/mL PME. The cells were incubated at 37° C. for 30 minutes. 1 μM umbelliferyl was added, and the cells were incubated further for 10 minutes at 37° C.
The cells were then incubated at 37° C. for 45 minutes. 1 μM umbelliferyl was added, and the cells were incubated further for 10 minutes at 37° C.

A. baumannii ATCC 15151 [3] = experiment: Filamentation with ciprofloxacin and Compound 25 on A. baumannii; format: cell-based; settings: for cell morphology and growth: 18 hours
Procedure: A. baumannii ATCC 15151: […] The culture tubes were incubated for 18 hours at 37° C. After 18 hours incubation, took 3 μL of cells from each well and plated on microscope slide to observe the following: […]

A. baumannii ATCC 15151 [4] = experiment: DNA degradation (agarose gel), drug-sensitive strain; format: cell-based; settings: 1.5% H2O2, 10 μg/mL ciprofloxacin, 100 μM Compound 25; 3 hours
[5] = tested on: A. baumannii ATCC BAA-1797; experiment: DNA degradation (agarose gel), drug-resistant strain; format: cell-based; settings: drug-resistant ATCC BAA-1797; 10 μg/mL ciprofloxacin, 100 μM Compound 25; 5 hours
E. coli pUC18 = experiment: Nitrocefin β-lactamase assay (outer membrane disruption); format: cell-based; settings: 10 μM melittin; 10 μg/mL PME; 6, 12, 24 μM Compound 25 and 26; 100 μM Compound 27; 50 μM Compound 15; 30 minutes
Procedure: E. coli pUC18 was grown from a glycerol stock by placing a small volume of cells onto a MHA plate. The MHA plate was incubated overnight at 37° C. A single colony was subsequently used to inoculate MHB+100 μg/mL ampicillin to obtain a bacterial broth suspension. The MHB broth suspension was grown at 37° C. on a rotary shaking incubator (100 rpm) for 12 hours. The cells were washed 3× by centrifuging and washing with 1 mL medium 200. The washed bacterial cell concentration was adjusted to ˜1×10^7 CFU/mL in medium 200 using OD at 595 nm. The cells were treated cells with 10 μM melittin; 6, 12, 24 μM Compound 25; 6 μM, 12 μM, 24 μM Compound 26; 100 μM Compound 27; 50 μM Compound 15; and 10 μg/mL PME. The cells were incubated at 37° C. for 30 minutes; added 50 μM nitrocefin and incubated 10 minutes at 37° C.
pUC18 E. coli carry an ampicillin resistance gene and produce β-lactamase.

[6] = MRSA ATCC BAA-44, serum not stated, read-out: MIC
[7] = no serum (note in the cell), read-out: MIC (μM) in MRSA BAA-44
[8] = ATCC 1797 / ATCC BAA-1797, 0% FBS, read-out: MIC (μM) in MDR A. baumannii ATCC 1797 0% FBS
[9] = ATCC 1797 / ATCC BAA-1797, 10% FBS, read-out: MIC (μM) in MDR A. baumannii ATCC 1797 10% FBS
[10] = ATCC 1797 / ATCC BAA-1797, read-out: MIC (μM) in MDR A. baumannii ATCC 1797 40% FBS, 40% FBS
[11] = ATCCBAA1797, 18 h, read-out: MIC in the presence of 40% FBS, A. baumannii ATCC BAA-1797, 40% FBS
[12] = ATCCBAA1797, A. baumannii ATCC BAA-1797, absence of serum, read-out: MIC in the absence of serum
[13] = ATCCBAA1797, Table 7, 10% FBS, read-out: MIC in 10% FBS
[14] = ATCCBAA1797, Table 7, no serum stated, read-out: MIC
[15] = ATCCBAA1797, read-out: MIC in 40% FBS (μM), Table 7, 40% FBS
[16] = 18 h, read-out: MIC in the presence of 40% FBS, MRSA ATCC BAA-44, 40% FBS
[17] = MRSA ATCC BAA-44, absence of serum, read-out: MIC in the absence of serum
[18] = […] Compound 25+50 ng/mL ciprofloxacin

| SMILES | MIC (MRSA ATCC BAA-44; [6]) [µM] | MIC (MRSA ATCC BAA-44; [7]) [µM] | MIC [1, 8] [µM] | MIC [1, 9] [µM] | MIC [1, 10] [µM] | MIC [1, 11] [µM] | MIC [1, 12] [µM] | MIC [1, 13] [µM] | MIC [1, 14] [µM] | MIC [1, 15] [µM] | ATP decrease (A. baumannii ATCC 15151 [2]) | MIC (MRSA ATCC BAA-44; [16]) [µM] | MIC (MRSA ATCC BAA-44; [17]) [µM] | also measured |
| --- | --- | --- | --- | --- | --- | --- | --- | --- | --- | --- | --- | --- | --- | --- |
| Cl.Clc1ccc(N/N=C/c2c[nH]c3cccc(OCc4ccccc4)c23)cc1 [Compound 26, (E)-2-((4-(benzyloxy)-1H-indol-3-yl)methylene)-1-(4-chlorophenyl)hydrazin-1-ium] | 25 | 50 | 6 | > 100 | 100 | 50 | 5 | > 100 | 6 | 100 | caused a decrease in ATP |  |  | MIC ([1]; ATCCBAA1797, A. baumannii ATCC BAA-1797, 10% FBS, read-out: MIC in the presence of 10% FBS): > 100 µM; increase in anti-bacterial activity for H. pylori compared to A. baumannii (H. pylori Hp A-4): 16.6 fold |
| Clc1ccc(N/N=C/c2c[nH]c3ccc(Br)cc23)cc1 [Compound 15, (E)-5-bromo-3-((2-(4-chlorophenyl)hydrazineylidene)methyl)-1H-indole] |  |  | 12.5 (≈ 4.36 µg/mL) | > 100 | 50 (≈ 17.4 µg/mL) | 100 | 6 (≈ 2.09 µg/mL) | > 100 | 12.5 (≈ 4.36 µg/mL) | > 100 | caused a decrease in ATP | > 100 | 50 (≈ 17.4 µg/mL) |  |
| Nc1cccc2[nH]cc(/C=N/Nc3ccc(Cl)cc3)c12 [Compound 14, (E)-3-((2-(4-chlorophenyl)hydrazineylidene)methyl)-1H-indol-4-amine] | 50 to 100 (≈ 14.2 to 28.5 µg/mL) |  | 6 (≈ 1.71 µg/mL) | > 100 | 50 (≈ 14.2 µg/mL) | 50 |  | > 100 | 6 (≈ 1.71 µg/mL) | 50 (≈ 14.2 µg/mL) | caused a decrease in ATP | 100 | 50 (≈ 14.2 µg/mL) | toxicity to MRSA BAA-44 (MRSA ATCC BAA-44; absence of serum): toxic; MIC ([1]; ATCCBAA1797, read-out: MIC in the absence of serum): 12.5 µM (≈ 3.56 µg/mL); MIC ([1]; ATCCBAA1797, read-out: MIC in the presence of 40% human serum, A. baumannii ATCC BAA-1797, 40% human serum): > 100 µM; inner membrane disruption (GUS fluorescence) (E. coli pNMT41; separate experiment, 12.5 μM Compound 14, 45 minutes): did not disrupt inner membrane |
| Brc1ccc(N/N=C/c2c[nH]c3cccc(OCc4ccccc4)c23)cc1.Cl [Compound 25, (E)-2-((4-(benzyloxy)-1H-indol-3-yl)methylene)-1-(4-bromophenyl)hydrazin-1-ium chloride] | 25 | 50 | 6 | > 100 | 50 | < 50 | 6 | > 100 | 6 | 50 | caused a decrease in ATP |  |  | inner membrane disruption (GUS fluorescence) (E. coli pNMT41; 10 μM melittin, 6, 12, 24, 100 μM Compound 25, 30 minutes): did not disrupt the inner membrane; inhibition of ciprofloxacin-induced filamentation (A. baumannii ATCC 15151 [3]; [18]): only slightly inhibited; cell morphology and growth (A. baumannii ATCC 15151 [3]; [18]): elongated in morphology and growth inhibition was observed; cell morphology and growth (A. baumannii ATCC 15151 [3]; single agent: 50 ng/mL ciprofloxacin or […] Compound 25): morphologically normal and full growth was observed; DNA degradation (A. baumannii ATCC 15151 [4]): did not degrade DNA; ds DNA damage [5]: Neither Ciprofloxacin Nor Compound 25 Caused ds DNA Damage |
| Cl.Fc1ccc(N/N=C/c2c[nH]c3cccc(OCc4ccccc4)c23)cc1 [Compound 27, (E)-2-((4-(benzyloxy)-1H-indol-3-yl)methylene)-1-(4-fluorophenyl)hydrazin-1-ium] | 100 | 100 | 12.5 | > 100 | 50 | 25 | 5 | > 100 | 12.5 | 50 | caused a decrease in ATP |  |  | outer membrane disruption (β-lactamase leakage, nitrocefin colour) (E. coli pUC18): caused outer membrane disruption |
